Data: patent US20240360126A1, “PYRAZOLO[3,4-B]PYRIDINE COMPOUNDS FOR THE TREATMENT OF AUTOIMMUNE DISEASE” (Hoffmann-La Roche Inc., priority 2021, published 2024)

target: T1, human TLR7 (Homo sapiens, UniProt Q9NYK1); experiment: HEK293-Blue-hTLR-7 cells assay; assay type: cell-based; details: HEK293-Blue-hTLR7 cells, R848 stimulation, 20 hrs; read-out: HEK/hTLR7 IC50
T1 construct: host or cells: HEK293 (HEK-Blue hTLR7)
T1 sequence (Q9NYK1 27-1049): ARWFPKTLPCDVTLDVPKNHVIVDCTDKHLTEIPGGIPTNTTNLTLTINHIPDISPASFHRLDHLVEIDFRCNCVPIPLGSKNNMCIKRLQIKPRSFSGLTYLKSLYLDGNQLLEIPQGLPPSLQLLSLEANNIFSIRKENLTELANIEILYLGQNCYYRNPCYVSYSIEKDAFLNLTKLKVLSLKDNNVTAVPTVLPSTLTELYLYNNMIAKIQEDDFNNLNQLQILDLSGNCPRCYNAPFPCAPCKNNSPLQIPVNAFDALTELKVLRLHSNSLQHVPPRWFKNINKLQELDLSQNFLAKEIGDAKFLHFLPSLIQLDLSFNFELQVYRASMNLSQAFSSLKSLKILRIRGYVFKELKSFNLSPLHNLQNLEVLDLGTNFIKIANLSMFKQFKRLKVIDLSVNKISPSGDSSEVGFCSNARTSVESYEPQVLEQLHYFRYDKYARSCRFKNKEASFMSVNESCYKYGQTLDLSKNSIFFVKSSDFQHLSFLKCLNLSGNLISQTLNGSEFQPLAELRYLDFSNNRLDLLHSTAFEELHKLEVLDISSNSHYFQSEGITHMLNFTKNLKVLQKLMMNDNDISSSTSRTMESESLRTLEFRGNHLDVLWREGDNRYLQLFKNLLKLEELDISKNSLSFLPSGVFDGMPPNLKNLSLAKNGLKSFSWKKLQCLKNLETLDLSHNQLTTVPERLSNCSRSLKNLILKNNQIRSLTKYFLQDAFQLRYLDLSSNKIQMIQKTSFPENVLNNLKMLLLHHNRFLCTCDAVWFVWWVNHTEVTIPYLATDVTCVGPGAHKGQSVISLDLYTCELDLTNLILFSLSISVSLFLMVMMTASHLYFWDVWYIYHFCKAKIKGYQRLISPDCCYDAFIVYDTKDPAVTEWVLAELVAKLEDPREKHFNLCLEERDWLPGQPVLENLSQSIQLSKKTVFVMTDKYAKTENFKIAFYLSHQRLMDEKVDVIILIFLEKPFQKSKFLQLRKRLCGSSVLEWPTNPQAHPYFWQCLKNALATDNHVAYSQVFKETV
From the text: A stable HEK293-Blue-hTLR-7 cell line was purchased from InvivoGen (Cat. #: hkb-htlr7, San Diego, California, USA). These cells were originally designed for studying the stimulation of human TLR7 by monitoring the activation of NF-κB. A SEAP (secreted embryonic alkaline phosphatase) reporter gene was placed under the control of the IFN-β minimal promoter fused to five NF-κB and AP-1-binding sites. The SEAP was induced by activating NF-κB and AP-1 via stimulating HEK-Blue hTLR7 cells with TLR7 ligands. Therefore the reporter expression was declined by TLR7 antagonist under the stimulation of a ligand, such as R848 (Resiquimod), for incubation of 20 hrs. The cell culture supernatant SEAP reporter activity was determined using QUANTI-Blue™ kit (Cat. #: rep-qbl, Invivogen, San Diego, Ca, USA) at a wavelength of 640 nm, a detection medium that turns purple or blue in the presence of alkaline phosphatase.
HEK293-Blue-hTLR7 cells were incubated at a density of 250,000-450,000 cells/mL in a volume of 170 μL in a 96-well plate in Dulbecco's Modified Eagle's medium (DMEM) containing 4.5 g/L glucose, 50 U/mL penicillin, […] streptomycin, […] Normocin, […] L-glutamine, 10% […] heat-inactivated fetal bovine serum with addition of 20 μL test compound in a serial dilution in the presence of final DMSO at 1% and 10 μL of 20 μM R848 in above DMEM, perform incubation under 37° C. in a CO2 incubator for 20 hrs. Then 20 μL of the supernatant from each well was incubated with 180 μL Quanti-blue substrate solution at 37° C. for 2 hrs and the absorbance was read at […] using a spectrophotometer. The signaling pathway that TLR7 activation leads to downstream NF-κB activation has been widely accepted, and therefore similar reporter assay was modified for evaluating TLR7 antagonist.

SMILES | IC50 [nM]
Cc1cc(N2CCC(c3cnc(N4CCNCC4)cc3C)[C@H](C)C2)c2cnn(C)c2n1 (single isomer, unassigned) [Example 20, 1,6-dimethyl-4-[cis-3-methyl-4-(4-methyl-6-piperazin-1-yl-3-pyridyl)-1-piperidyl]pyrazolo[3,4-b]pyridine] | 50
Cc1cc(N2CCC(c3cnc(N4CCNCC4)cc3C)[C@H](C)C2)c2cnn(C)c2n1 (single isomer, unassigned) [Example 21, 1,6-dimethyl-4-[trans-3-methyl-4-(4-methyl-6-piperazin-1-yl-3-pyridyl)-1-piperidyl]pyrazolo[3,4-b]pyridine] | 16
Cc1cc(N2CCC(c3ncc(N4CCNCC4)nc3C)[C@H](C)C2)c2cnn(C)c2n1 (single isomer, unassigned) [Example 22, 1,6-dimethyl-4-[cis-3-methyl-4-(3-methyl-5-piperazin-1-yl-pyrazin-2-yl)-1-piperidyl]pyrazolo[3,4-b]pyridine] | 49
Cc1cc(N2CCC(c3ncc(N4CCNCC4)nc3C)[C@H](C)C2)c2cnn(C)c2n1 (single isomer, unassigned) [Example 23, 1,6-dimethyl-4-[trans-3-methyl-4-(3-methyl-5-piperazin-1-yl-pyrazin-2-yl)-1-piperidyl]pyrazolo[3,4-b]pyridine] | 11
Cc1cc(N2CCC(c3ncc(N4CCNCC4)cc3C)[C@H](C)C2)c2cnn(C)c2n1 (single isomer, unassigned) [Example 24, 1,6-dimethyl-4-[cis-3-methyl-4-(3-methyl-5-piperazin-1-yl-2-pyridyl)-1-piperidyl]pyrazolo[3,4-b]pyridine] | 82
Cc1cc(N2CCC(c3ncc(N4CCNCC4)cc3C)[C@H](C)C2)c2cnn(C)c2n1 (single isomer, unassigned) [Example 25, 1,6-dimethyl-4-[trans-3-methyl-4-(3-methyl-5-piperazin-1-yl-2-pyridyl)-1-piperidyl]pyrazolo[3,4-b]pyridine] | 9
Cc1cc(N2CCC(c3ccc(N4CCNCC4)cc3)CC2)c2cnn(C)c2n1 [Example 1, 1,6-dimethyl-4-[4-(4-piperazin-1-ylphenyl)-1-piperidyl]pyrazolo[3,4-b]pyridine] | 53
Cc1cc(N2CCC(c3ccc(N4CCNCC4)cn3)CC2)c2cnn(C)c2n1 [Example 2, 1,6-dimethyl-4-[4-(5-piperazin-1-yl-2-pyridyl)-1-piperidyl]pyrazolo[3,4-b]pyridine] | 27
Cc1cc(N2CCC(c3cnc(N4CCNCC4)cn3)CC2)c2cnn(C)c2n1 [Example 3, 1,6-dimethyl-4-[4-(5-piperazin-1-ylpyrazin-2-yl)-1-piperidyl]pyrazolo[3,4-b]pyridine] | 20
Cc1cc(N2CCC(c3ncc(N4CCNCC4)cn3)CC2)c2cnn(C)c2n1 [Example 4, 1,6-dimethyl-4-[4-(5-piperazin-1-ylpyrimidin-2-yl)-1-piperidyl]pyrazolo[3,4-b]pyridine] | 31
Cc1cc(N2CCNCC2)cnc1C1CCN(c2ccnc3c2cnn3C)CC1 [Example 5, 1-methyl-4-[4-(3-methyl-5-piperazin-1-yl-2-pyridyl)-1-piperidyl]pyrazolo[3,4-b]pyridine] | 8
Cc1cc(N2CCNCC2)ncc1C1CCN(c2ccnc3c2cnn3C)CC1 [Example 6, 1-methyl-4-[4-(4-methyl-6-piperazin-1-yl-3-pyridyl)-1-piperidyl]pyrazolo[3,4-b]pyridine] | 7
Cc1cc(N2CCC(c3ncc(N4CCNCC4)cc3C)CC2)c2cnn(C)c2n1 [Example 7, 1,6-dimethyl-4-[4-(3-methyl-5-piperazin-1-yl-2-pyridyl)-1-piperidyl]pyrazolo[3,4-b]pyridine] | 11
Cc1cc(N2CCC(c3cnc(N4CCNCC4)cc3C)CC2)c2cnn(C)c2n1 [Example 8, 1,6-dimethyl-4-[4-(4-methyl-6-piperazin-1-yl-3-pyridyl)-1-piperidyl]pyrazolo[3,4-b]pyridine] | 52
Cc1cc(N2CCC(c3cc(C)c(N4CCNCC4)cn3)CC2)c2cnn(C)c2n1 [Example 9, 1,6-dimethyl-4-[4-(4-methyl-5-piperazin-1-yl-2-pyridyl)-1-piperidyl]pyrazolo[3,4-b]pyridine] | 39
Cc1cc(N2CCC(c3ccc(N4CCNCC4)nc3C)CC2)c2cnn(C)c2n1 [Example 10, 1,6-dimethyl-4-[4-(2-methyl-6-piperazin-1-yl-3-pyridyl)-1-piperidyl]pyrazolo[3,4-b]pyridine] | 39
Cc1cc(N2CCC(c3cnc(N4CCNCC4)nc3C)CC2)c2cnn(C)c2n1 [Example 11, 1,6-dimethyl-4-[4-(4-methyl-2-piperazin-1-yl-pyrimidin-5-yl)-1-piperidyl]pyrazolo[3,4-b]pyridine] | 37
CCc1cc(N2CCNCC2)cnc1C1CCN(c2cc(C)nc3c2cnn3C)CC1 [Example 13, 4-[4-(3-ethyl-5-piperazin-1-yl-2-pyridyl)-1-piperidyl]-1,6-dimethyl-pyrazolo[3,4-b]pyridine] | 26
COc1cc(N2CCNCC2)cnc1C1CCN(c2cc(C)nc3c2cnn3C)CC1 [Example 14, 4-[4-(3-methoxy-5-piperazin-1-yl-2-pyridyl)-1-piperidyl]-1,6-dimethyl-pyrazolo[3,4-b]pyridine] | 12
Cc1cc(N2CCC(c3ncc(N4CC[C@@H](N)[C@@H](F)C4)cc3C)CC2)c2cnn(C)c2n1 [Example 15, (3S,4R)-1-[6-[1-(1,6-dimethylpyrazolo[3,4-b]pyridin-4-yl)-4-piperidyl]-5-methyl-3-pyridyl]-3-fluoro-piperidin-4-amine] | 24
COC[C@H]1CN(c2cnc(C3CCN(c4cc(C)nc5c4cnn5C)CC3)c(C)c2)CCN1 [Example 16, 4-[4-[5-[(3R)-3-(methoxymethyl)piperazin-1-yl]-3-methyl-2-pyridyl]-1-piperidyl]-1,6-dimethyl-pyrazolo[3,4-b]pyridine] | 23
CO[C@H]1CN(c2cnc(C3CCN(c4cc(C)nc5c4cnn5C)CC3)c(C)c2)CC[C@@H]1N [Example 17, (3S,4S)-1-[6-[1-(1,6-dimethylpyrazolo[3,4-b]pyridin-4-yl)-4-piperidyl]-5-methyl-3-pyridyl]-3-methoxy-piperidin-4-amine] | 22
CO[C@@H]1CN(c2cnc([C@@H]3CCN(c4cc(C)nc5c4cnn5C)C[C@H]3C)c(C)c2)C[C@H]1N [Example 26, (3R,4R)-1-[6-[(3S,4R)-1-(1,6-dimethylpyrazolo[3,4-b]pyridin-4-yl)-3-methyl-4-piperidyl]-5-methyl-3-pyridyl]-4-methoxy-pyrrolidin-3-amine] | 12
Cc1cc(N2CC[C@@H](c3ncc(N4CC5(CNCCO5)C4)cc3C)[C@H](C)C2)c2cnn(C)c2n1 [Example 27, 2-[6-[(3S,4R)-1-(1,6-dimethylpyrazolo[3,4-b]pyridin-4-yl)-3-methyl-4-piperidyl]-5-methyl-3-pyridyl]-5-oxa-2,8-diazaspiro[3.5]nonane] | 9
Cc1cc(N2CC[C@@H](c3ncc(N4CCOC[C@@H](N)C4)cc3C)[C@H](C)C2)c2cnn(C)c2n1 [Example 28, (6S)-4-[6-[(3S,4R)-1-(1,6-dimethylpyrazolo[3,4-b]pyridin-4-yl)-3-methyl-4-piperidyl]-5-methyl-3-pyridyl]-1,4-oxazepan-6-amine] | 7
